US20230382910A1, “HETEROARYL COMPOUNDS FOR THE TREATMENT OF PAIN” (VERTEX PHARMACEUTICALS INCORPORATED, priority 2022, published 2023)

Molecular target: human NaV 1.8 (Homo sapiens, UniProt Q9Y5Y9)
Assay: E-VIPR Assay Detecting and Measuring NaV Inhibition Properties
Type: cell-based
Settings: HEK cells expressing a truncated form of human NaV 1.8; electrical stimulation, membrane potential FRET dyes; read-out: measured IC50 value in the E-VIPR Assay
Excerpt: E-VIPR Assay Detecting and Measuring NaV Inhibition Properties
Sodium ion channels are voltage-dependent proteins that can be activated by inducing membrane voltage changes by applying electric fields. The electrical stimulation instrument and methods of use, referred to as E-VIPR, are described in International Publication No. WO 2002/008748 A3 and C.-J. Huang et al. Characterization of voltage-gated sodium channel blockers by electrical stimulation and fluorescence detection of membrane potential, 24 Nature Biotech. 439-46 (2006), both of which are incorporated by reference in their entirety. The instrument comprises a microtiter plate handler, an optical system for exciting the coumarin dye while simultaneously recording the coumarin and oxonol emissions, a waveform generator, a current- or voltage-controlled amplifier, and parallel electrode pairs that are inserted into assay plate wells. Under integrated computer control, this instrument passes user-programmed electrical stimulus protocols to cells within the wells of the microtiter plate.
16-20 hours prior to running the assay on E-VIPR, HEK cells expressing a truncated form of human NaV 1.8 with full channel activity were seeded into microtiter 384-well plates, pre-coated with matrigel, at a density of 25,000 cells per well. 2.5-5% KIR2.1 BacMam virus was added to the final cell suspension before seeding into cell plates. HEK cells were grown in Dulbecco's Modified Eagle's Medium (DMEM) supplemented with 10% FBS (Fetal Bovine Serum, qualified; Sigma #F4135), 1% NEAA (Non-Essential Amino Acids, Gibco #11140), 1% HEPES (Gibco #15630), 1% Pen-Strep (Penicillin-Streptomycin; Gibco #15140) and 5 μg/ml Blasticidin (Gibco #R210-01). Cells were expanded in 5-layer CellSTACK culture chambers or cell culture flasks with vented caps, with 90-95% humidity and 5% CO2.
Compound Loading Buffer (2× concentration): Na/TMA Cl Bath1 Buffer containing HS (omitted in experiments run in the absence of human serum (HS)) 50%, VABSC-1 1 mM, BSA 0.2 mg/ml (in Bath-1), KCl 9 mM, DMSO 0.625%.
Assay Protocol (7 Key Steps):
1) To reach the final concentration in each well, 375 nL of each compound was pre-spotted (in neat DMSO) into polypropylene compound plates at 240× desired final concentration from an intermediate stock concentration of 0.075 mM, in an 11-point dose response, 3-fold dilution, resulting in a top dose of 300 nM final concentration in the cell plate. Vehicle control (neat DMSO), and positive control (an established NaV1.8 inhibitor, 25 μM final in assay in DMSO) were added manually to the outermost columns of each plate respectively. The compound plate was backfilled with 45 μL per well of Compound Loading Buffer resulting in a 240-fold dilution of compound following a 1:1 transfer of compound into the cell plate (see Step 6). Final DMSO concentration for all wells in the assay was 0.625% (0.75% DMSO was supplemented to the Compound Loading Buffer for a final DMSO concentration of 0.625%). This assay dilution protocol was adjusted to enable a higher dose range to be tested in the presence of HS or if the final assay volume was altered.
2) Hexyl Dye Solution was prepared.
3) Cell plates were prepared. On the day of the assay, the media was aspirated, and the cells were washed three times with 80 μL of Bath-1 buffer, maintaining 25 μL residual volume in each well.
4) 25 μL per well of Hexyl Dye Solution was dispensed into the cell plates. The cells were incubated for 20 minutes at room temperature or ambient conditions in darkness.
5) 45 μL per well of Compound Loading Buffer was dispensed into compound plates.
6) The cell plates were washed three times with 80 μL per well of Bath-1 Buffer, leaving 25 µL of residual volume. Then 25 μL per well from compound plate was transferred to each cell plate. The mixture was incubated for 30 minutes at room temperature/ambient conditions. […]

human NaV 1.8, sequence (Q9Y5Y9 126-399 limits assumed): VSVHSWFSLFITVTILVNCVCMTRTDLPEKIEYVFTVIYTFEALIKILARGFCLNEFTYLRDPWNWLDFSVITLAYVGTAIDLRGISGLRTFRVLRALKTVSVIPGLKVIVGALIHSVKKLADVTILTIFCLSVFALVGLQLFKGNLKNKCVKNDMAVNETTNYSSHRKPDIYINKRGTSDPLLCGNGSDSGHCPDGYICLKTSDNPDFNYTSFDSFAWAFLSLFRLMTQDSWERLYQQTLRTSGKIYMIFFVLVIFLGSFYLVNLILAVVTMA
human NaV 1.8, sequence (Q9Y5Y9 660-890 limits assumed): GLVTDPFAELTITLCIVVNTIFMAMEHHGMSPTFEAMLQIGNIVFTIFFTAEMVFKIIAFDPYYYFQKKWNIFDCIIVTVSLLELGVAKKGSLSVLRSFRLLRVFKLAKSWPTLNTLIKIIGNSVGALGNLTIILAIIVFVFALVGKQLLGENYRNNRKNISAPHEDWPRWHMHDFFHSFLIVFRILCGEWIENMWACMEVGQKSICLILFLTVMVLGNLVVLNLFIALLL
human NaV 1.8, sequence (Q9Y5Y9 1148-1722 limits assumed): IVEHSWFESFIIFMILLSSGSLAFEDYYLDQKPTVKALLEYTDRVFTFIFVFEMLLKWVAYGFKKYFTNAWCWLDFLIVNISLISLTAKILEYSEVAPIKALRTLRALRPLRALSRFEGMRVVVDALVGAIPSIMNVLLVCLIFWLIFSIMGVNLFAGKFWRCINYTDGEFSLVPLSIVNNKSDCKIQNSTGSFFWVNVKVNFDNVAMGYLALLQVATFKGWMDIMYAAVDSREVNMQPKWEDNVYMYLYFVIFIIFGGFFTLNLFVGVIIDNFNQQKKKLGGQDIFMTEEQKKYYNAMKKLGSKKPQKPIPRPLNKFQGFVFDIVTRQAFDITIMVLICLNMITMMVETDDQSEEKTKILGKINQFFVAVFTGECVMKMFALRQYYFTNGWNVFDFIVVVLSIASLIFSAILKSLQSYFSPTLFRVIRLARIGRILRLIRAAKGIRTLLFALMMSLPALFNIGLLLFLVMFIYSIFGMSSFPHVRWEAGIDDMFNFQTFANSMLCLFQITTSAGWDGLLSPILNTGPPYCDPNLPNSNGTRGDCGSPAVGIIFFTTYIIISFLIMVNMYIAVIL

Row | SMILES | IC50
1 | Cc1cc(C(C)(CO)C(F)(F)F)c(Cl)cc1-c1cc(=O)c2c(C(N)=O)nccc2[nH]1 (single isomer, unassigned) [Compound 365] | 500 to 2000 nM
2 | CC(C)(C)c1ccc(-c2cc(=O)c3ccccc3[nH]2)cc1 [Compound 5, 2-(4-tert-butylphenyl)-1H-quinolin-4-one] | 500 to 2000 nM
3 | Cc1ccc(-c2cc(=O)c3ccccc3[nH]2)c(C)c1 [Compound 6, 2-(2,4-dimethylphenyl)-1H-quinolin-4-one] | 2000 to 5000 nM
4 | Cc1ccc(C(C)(C)C)cc1-c1cc(=O)c2ccccc2[nH]1 [Compound 7, 2-(5-tert-butyl-2-methyl-phenyl)-1H-quinolin-4-one] | 500 to 2000 nM
5 | Cc1cc(C2CC2)ccc1-c1cc(=O)c2ccccc2[nH]1 [Compound 8, 2-(4-cyclopropyl-2-methyl-phenyl)-1H-quinolin-4-one] | 500 to 2000 nM
6 | Cc1c(-c2cc(=O)c3ccccc3[nH]2)ccc2c1CCC2 [Compound 12, 2-(4-methylindan-5-yl)-1H-quinolin-4-one] | 500 to 2000 nM
7 | Cc1ccc(C(F)(F)F)cc1-c1cc(=O)c2ccccc2[nH]1 [Compound 17, 2-[2-methyl-5-(trifluoromethyl)phenyl]-1H-quinolin-4-one] | 2000 to 5000 nM
8 | COc1cc(C(F)(F)F)ccc1-c1cc(=O)c2ccccc2[nH]1 [Compound 19, 2-[2-methoxy-4-(trifluoromethyl)phenyl]-1H-quinolin-4-one] | 2000 to 5000 nM
9 | COc1cc(C)c(-c2cc(=O)c3ccccc3[nH]2)cc1C [Compound 23, 2-(4-methoxy-2,5-dimethyl-phenyl)-1H-quinolin-4-one] | 2000 to 5000 nM
10 | CCOc1cc(C(F)(F)F)ccc1-c1cc(=O)c2ccccc2[nH]1 [Compound 28, 2-[2-ethoxy-4-(trifluoromethyl)phenyl]-1H-quinolin-4-one] | 2000 to 5000 nM
11 | Cc1ccc(C)c(-c2cc(=O)c3ccccc3[nH]2)c1 [Compound 52, 2-(2,5-dimethylphenyl)-1H-quinolin-4-one] | 2000 to 5000 nM
12 | Cc1cc(OC(F)(F)F)ccc1-c1cc(=O)c2ccccc2[nH]1 [Compound 54, 2-[2-methyl-4-(trifluoromethoxy)phenyl]-1H-quinolin-4-one] | 500 to 2000 nM
13 | O=c1cc(-c2cc3c(cc2Cl)CCC3)[nH]c2ccccc12 [Compound 70, 2-(6-chloroindan-5-yl)-1H-quinolin-4-one] | 2000 to 5000 nM
14 | COc1cc(C)c(C)cc1-c1cc(=O)c2ccccc2[nH]1 [Compound 72, 2-(2-methoxy-4,5-dimethyl-phenyl)-1H-quinolin-4-one] | 2000 to 5000 nM
15 | Cc1ccc(-c2cc(=O)c3ccccc3[nH]2)c(C)c1Cl [Compound 74, 2-(3-chloro-2,4-dimethyl-phenyl)-1H-quinolin-4-one] | 500 to 2000 nM
16 | Cc1cc(Cl)ccc1-c1cc(=O)c2ccccc2[nH]1 [Compound 75, 2-(4-chloro-2-methyl-phenyl)-1H-quinolin-4-one] | 2000 to 5000 nM
17 | Cc1cc(C(C)(C)C)ccc1-c1cc(=O)c2c[n+]([O-])ccc2[nH]1 [Compound 107, 2-(4-tert-butyl-2-methyl-phenyl)-6-oxido-1H-1,6-naphthyridin-6-ium-4-one] | 500 to 2000 nM
18 | Cc1cc(C(C)(C)C)ccc1-c1cc(=O)c2cccnc2[nH]1 [Compound 111, 2-(4-tert-butyl-2-methyl-phenyl)-1H-1,8-naphthyridin-4-one] | 2000 to 5000 nM
19 | Cc1cc(Cl)c(Cl)cc1-c1cc(=O)c2ccccc2[nH]1 [Compound 117, 2-(4,5-dichloro-2-methyl-phenyl)-1H-quinolin-4-one] | 500 to 2000 nM

Row | SMILES | IC50
20 | Cc1cc(Cl)c(Cl)cc1-c1cc(=O)c2cnccc2[nH]1 [Compound 118, 2-(4,5-dichloro-2-methyl-phenyl)-1H-1,6-naphthyridin-4-one] | 500 to 2000 nM
21 | Cc1cc(C)c(-c2cc(=O)c3c(C#N)cccc3[nH]2)cc1C [Compound 123, 4-oxo-2-(2,4,5-trimethylphenyl)-1H-quinoline-5-carbonitrile] | 500 to 2000 nM
22 | Cc1cc(C)c(-c2cc(=O)c3ccccc3[nH]2)cc1C [Compound 124, 2-(2,4,5-trimethylphenyl)-1H-quinolin-4-one] | 500 to 2000 nM
23 | Cc1ccc2[nH]c(-c3ccc(C(C)(C)C)cc3C)cc(=O)c2c1 [Compound 126, 2-(4-tert-butyl-2-methyl-phenyl)-6-methyl-1H-quinolin-4-one] | 500 to 2000 nM
24 | Cc1cc(C2(C#N)CC2)ccc1-c1cc(=O)c2ccccc2[nH]1 [Compound 138, 1-[3-methyl-4-(4-oxo-1H-quinolin-2-yl)phenyl]cyclopropanecarbonitrile] | 2000 to 5000 nM
25 | CCOC(=O)c1ccc(-c2cc(=O)c3ccccc3[nH]2)c(C)c1 [Compound 166, ethyl 3-methyl-4-(4-oxo-1H-quinolin-2-yl)benzoate] | 2000 to 5000 nM
26 | COC(C)(C)c1ccc(-c2cc(=O)c3ccccc3[nH]2)c(C)c1 [Compound 180, 2-[4-(1-methoxy-1-methyl-ethyl)-2-methyl-phenyl]-1H-quinolin-4-one] | 500 to 2000 nM
27 | Cc1cc(-c2cc(=O)c3c[n+]([O-])ccc3[nH]2)c(C)nc1C(C)(C)C [Compound 195, 2-(6-tert-butyl-2,5-dimethyl-3-pyridyl)-6-oxido-1H-1,6-naphthyridin-6-ium-4-one] | 500 to 2000 nM
28 | Cc1cc(-c2cc(=O)c3c(=O)[nH]ccc3[nH]2)c(C)nc1C(F)(F)F [Compound 200, 2-[2,5-dimethyl-6-(trifluoromethyl)-3-pyridyl]-1,6-dihydro-1,6-naphthyridine-4,5-dione] | 500 to 2000 nM
29 | COc1cccc2[nH]c(-c3ccc(C4(C(F)(F)F)CC4)cc3C)cc(=O)c12 [Compound 208, 5-methoxy-2-[2-methyl-4-[1-(trifluoromethyl)cyclopropyl]phenyl]-1H-quinolin-4-one] | 500 to 2000 nM
30 | Cc1cc(C(C)(C)C)ccc1-c1cc(=O)c2cccc(C)c2[nH]1 [Compound 209, 2-(4-tert-butyl-2-methyl-phenyl)-8-methyl-1H-quinolin-4-one] | 500 to 2000 nM
31 | Cc1ccc(C(C)(C)C)cc1-c1cc(=O)c2c(C(N)=O)nccc2[nH]1 [Compound 212, 2-(5-tert-butyl-2-methyl-phenyl)-4-oxo-1H-1,6-naphthyridine-5-carboxamide] | 500 to 2000 nM
32 | Cc1nc(C(C)(C)C)ccc1-c1cc(=O)c2c(C(N)=O)nccc2[nH]1 [Compound 221, 2-(6-tert-butyl-2-methyl-3-pyridyl)-4-oxo-1H-1,6-naphthyridine-5-carboxamide] | 500 to 2000 nM
33 | CCc1cc(-c2cc(=O)c3c(C(N)=O)nccc3[nH]2)c(C)cc1C [Compound 224, 2-(5-ethyl-2,4-dimethyl-phenyl)-4-oxo-1H-1,6-naphthyridine-5-carboxamide] | 500 to 2000 nM
34 | CC(C)(C)c1ccc(-c2cc(=O)c3c(C(N)=O)nccc3[nH]2)c(F)c1 [Compound 228, 2-(4-tert-butyl-2-fluoro-phenyl)-4-oxo-1H-1,6-naphthyridine-5-carboxamide] | 500 to 2000 nM
35 | Cc1cc(-c2cc(=O)c3c(C(N)=O)nccc3[nH]2)c(C)cc1Cl [Compound 231, 2-(4-chloro-2,5-dimethyl-phenyl)-4-oxo-1H-1,6-naphthyridine-5-carboxamide] | 500 to 2000 nM
36 | Cc1cc(C)c(C(C)C)cc1-c1cc(=O)c2c(C(N)=O)nccc2[nH]1 [Compound 234, 2-(5-isopropyl-2,4-dimethyl-phenyl)-4-oxo-1H-1,6-naphthyridine-5-carboxamide] | 500 to 2000 nM
37 | CC1(C)CCC(C)(C)c2cc(-c3cc(=O)c4c(C(N)=O)nccc4[nH]3)ccc21 [Compound 239, 4-oxo-2-(1,1,4,4-tetramethyltetralin-6-yl)-1H-1,6-naphthyridine-5-carboxamide] | 500 to 2000 nM
